Earlier results, collected in US20080255091A1, “COMPOUNDS TO TREAT AMYLOIDOSIS AND PREVENT DEATH OF BETA-CELLS IN TYPE 2 DIABETES MELLITUS” (ASTRUM THERAPEUTICS PTY LTD., priority 2005, published 2008).

Test system: β-cell death induced by a fibrillogenic form of IAPP

Compound	prevention of β-cell death induced by a fibrillogenic form of IAPP
Nc1c(/N=N/c2ccc(-c3ccc(/N=N/c4cc(S(=O)(=O)O)c5ccccc5c4N)cc3)cc2)cc(S(=O)(=O)O)c2ccccc12 [Congo Red]	completely or partially prevented
SNNFGA: the peptide SNNFGA, anti-amyloidosis agent from the literature (Islet amyloid polypeptide; UniProt P10997 53-58, looked up, fragment)	completely or partially prevented
